Our source for the EC50 values is patent US9156796B2, “Benzoimidazole-carboxylic acid amide derivatives as APJ receptor modulators” (SANOFI, priority 2013, dated 2015).

The assay addresses T1, human apelin receptor (Homo sapiens, UniProt P35414).
T1 construct: expressed in transfected cells
T1 sequence (P35414 1-380): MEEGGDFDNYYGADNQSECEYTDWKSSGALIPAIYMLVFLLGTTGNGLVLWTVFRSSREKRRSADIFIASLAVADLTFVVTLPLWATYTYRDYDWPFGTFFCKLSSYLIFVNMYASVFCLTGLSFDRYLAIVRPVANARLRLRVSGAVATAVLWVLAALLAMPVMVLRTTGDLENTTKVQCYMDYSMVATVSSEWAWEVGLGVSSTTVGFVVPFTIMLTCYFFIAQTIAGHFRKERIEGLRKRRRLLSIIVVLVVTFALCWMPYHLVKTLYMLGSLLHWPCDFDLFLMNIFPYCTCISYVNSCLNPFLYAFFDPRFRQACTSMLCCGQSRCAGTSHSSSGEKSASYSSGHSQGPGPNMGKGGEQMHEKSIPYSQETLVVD
Description: Determination of agonism on the human apelin receptor by a calcium fluorescence assay (FLIPR). It counts as cell-based. Conditions: HEK293 cells stably transfected with human apelin receptor and Giaq protein, Fluo-4 calcium fluorescence. The procedure, abridged:
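HEK293 cells stably co-expressing human apelin receptor and promiscuous Giaq, loaded 1 h at 37 °C with Fluo-4 (4 μM) in probenecid-containing Hepes buffer, pH 7.4. Compounds, at least 7 concentrations in triplicate, added in FLIPR Tetra; peak calcium fluorescence normalized to 1 μM apelin-13 as 100% to derive EC50.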

Where two headings read alike, the source gives them in different places.

What is called EC50 is the midpoint of the concentration-response curve.

As for `CCC(CC)n1c(Cc2cccs2)nc2cc(C(=O)NC(C(N)=O)c3ccccc3)ccc21` (stereo not drawn) [Example 170, 1-(1-Ethyl-propyl)-2-thiophen-2-ylmethyl-1H-benzoimidazole-5-carboxylic acid (carbamoyl-phenyl-methyl)-amide], under “read-out: EC50 (APJ agonism)”, the EC50 was 10100 nM.
The same measure, in the same setting: the same measure for `CCCC(CO)NC(=O)c1ccc2c(c1)nc(Cc1cccs1)n2C(CC)CC` (stereo not drawn) [Example 196, 1-(1-Ethyl-propyl)-2-thiophen-2-ylmethyl-1H-benzoimidazole-5-carboxylic acid (1-hydroxymethyl-butyl)-amide]: 922 nM.
Same read-out and setting: the same measure for `CC(C)C[C@H](NC(=O)c1ccc2c(c1)nc(Cc1cccs1)n2C1CCCCC1C)C(=O)O` (single isomer, unassigned) [Example 413]: 1020 nM; for `CC(C)C[C@H](NC(=O)c1ccc2c(c1)nc(Cc1ccoc1)n2C1CCCCC1)C(=O)O` [Example 138, (S)-2-[(1-Cyclohexyl-2-furan-3-ylmethyl-1H-benzoimidazole-5-carbonyl)-amino]-4-methyl-pentanoic acid]: 2930 nM; for `CC(C)C[C@@H](CCC(=O)O)NC(=O)c1ccc2c(c1)nc(Cc1cccs1)n2C1CCCCC1C(F)(F)F` (stereo partly drawn) [Example 69, (R)-6-Methyl-4-{[2-thiophen-2-ylmethyl-1-(2-trifluoromethyl-cyclohexyl)-1H-benzoimidazole-5-carbonyl]-amino}-heptanoic acid]: 339 nM.
Same read-out and setting: the same measure for `CCC(CC)n1c(Cc2cccs2)nc2cc(C(=O)N[C@@H](CC(C)C)C(=O)Nc3cccc(N4CCOCC4)c3)ccc21` [Example 333, 1-(1-Ethyl-propyl)-2-thiophen-2-ylmethyl-1H-benzoimidazole-5-carboxylic acid [(S)-3-methyl-1-(3-morpholin-4-yl-phenylcarbamoyl)-butyl]-amide]: 27300 nM; for `CCC(CC)n1c(Cc2cccs2)nc2cc(C(=O)N[C@@H](CC(C)C)C(=O)NCC3CCN(Cc4ccccc4)C3)ccc21` (stereo partly drawn) [Example 290, 1-(1-Ethyl-propyl)-2-thiophen-2-ylmethyl-1H-benzoimidazole-5-carboxylic acid {(S)-1-[(1-benzyl-pyrrolidin-3-ylmethyl)-carbamoyl]-3-methyl-butyl}-amide]: 506 nM; for `CCC(CC)n1c(Cc2cccs2)nc2cc(C(=O)N[C@@H](CCSC)C(=O)O)ccc21` [Example 123, (S)-2-{[1-(1-Ethyl-propyl)-2-thiophen-2-ylmethyl-1H-benzoimidazole-5-carbonyl]-amino}-4-methylsulfanyl-butyric acid]: 1880 nM.
For the molecule `CCC(CC)n1c(Cc2cccs2)nc2cc(C(=O)N[C@@H](CC(C)C)C(=O)Nc3ccccc3OC)ccc21` [Example 255, 1-(1-Ethyl-propyl)-2-thiophen-2-ylmethyl-1H-benzoimidazole-5-carboxylic acid [(S)-1-(2-methoxy-phenylcarbamoyl)-3-methyl-butyl]-amide], the EC50 (read-out: EC50 (APJ agonism)) was 6670 nM.
Same read-out and setting: next, `CCC(CC)n1c(Cc2cccs2)nc2cc(C(=O)N[C@@H](CC(C)C)[C@@H](O)C(=O)O)ccc21` [Example 67, (2R,3S)-3-{[1-(1-Ethyl-propyl)-2-thiophen-2-ylmethyl-1H-benzoimidazole-5-carbonyl]-amino}-2-hydroxy-5-methyl-hexanoic acid]: 79 nM; `C[C@@H]1CCCC[C@H]1n1c(Cc2cccs2)nc2cc(C(=O)NC3(C(=O)O)CCCCC3)ccc21` [Example 38, 1-{[1-((1R,2R)-2-Methyl-cyclohexyl)-2-thiophen-2-ylmethyl-1H-benzoimidazole-5-carbonyl]-amino}-cyclohexanecarboxylic acid]: 115 nM.
`CCC(CC)n1c(Cc2cccs2)nc2cc(C(=O)N[C@@H](CC(C)C)C(=O)N(C)C)ccc21` [Example 357, 1-(1-Ethyl-propyl)-2-thiophen-2-ylmethyl-1H-benzoimidazole-5-carboxylic acid ((S)-1-dimethyl-carbamoyl-3-methyl-butyl)-amide]: the EC50 (read-out: EC50 (APJ agonism)) came to 389 nM.
For `CCC(CC)n1c(Cc2cccs2)nc2cc(C(=O)N[C@@H](CC(C)C)C(=O)NCC(C)(C)CN3CCCCCC3)ccc21` [Example 287, 1-(1-Ethyl-propyl)-2-thiophen-2-ylmethyl-1H-benzoimidazole-5-carboxylic acid [(S)-1-(3-azepan-1-yl-2,2-dimethyl-propylcarbamoyl)-3-methyl-butyl]-amide], the EC50 (read-out: EC50 (APJ agonism)) worked out at 408 nM.
The same measure, in the same setting: next, `CCC(CC)n1c(Cc2cccs2)nc2cc(C(=O)N[C@@H](CC(C)C)C(=O)N(CC)CC3CCCCO3)ccc21` (stereo partly drawn) [Example 396, 1-(1-Ethyl-propyl)-2-thiophen-2-ylmethyl-1H-benzoimidazole-5-carboxylic acid {(S)-1-[ethyl-(tetrahydro-pyran-2-ylmethyl)-carbamoyl]-3-methyl-butyl}-amide]: 4040 nM.
Turning to `CCC(CC)n1c(Cc2cccs2)nc2cc(C(=O)N[C@@H](CC(C)C)C(=O)N(C)C3CCOCC3)ccc21` [Example 377, 1-(1-Ethyl-propyl)-2-thiophen-2-ylmethyl-1H-benzoimidazole-5-carboxylic acid {(S)-3-methyl-1-[methyl-(tetrahydro-pyran-4-yl)-carbamoyl]-butyl}-amide], the 50% effective concentration (EC50) (read-out: EC50 (APJ agonism)) worked out at 1140 nM.
The same measure, in the same setting: the same measure for `CCC(CC)n1c(Cc2cccs2)nc2cc(C(=O)N[C@@H](CC(C)C)C(=O)NCCCN3CCOCC3)ccc21` [Example 234, 1-(1-Ethyl-propyl)-2-thiophen-2-ylmethyl-1H-benzoimidazole-5-carboxylic acid [(S)-3-methyl-1-(3-morpholin-4-yl-propylcarbamoyl)-butyl]-amide]: 344 nM.
Consider `CCC(CC)n1c(Cc2cccs2)nc2cc(C(=O)NC(CO)C(C)C)ccc21` (stereo not drawn) [Example 189, 1-(1-Ethyl-propyl)-2-thiophen-2-ylmethyl-1H-benzoimidazole-5-carboxylic acid (1-hydroxymethyl-2-methyl-propyl)-amide], for which the EC50 (EC50 (APJ agonism)) was 12200 nM.
Take `CCC(CC)n1c(Cc2cccs2)nc2cc(C(=O)NC(CC(C)C)c3nnc(C)o3)ccc21` (stereo not drawn) [Example 481, 1-(1-Ethyl-propyl)-2-thiophen-2-ylmethyl-1H-benzoimidazole-5-carboxylic acid [3-methyl-1-(5-methyl-[1,3,4]oxadiazol-2-yl)-butyl]-amide]: the EC50 (read-out: EC50 (APJ agonism)) was 3480 nM.
Take `CCC(CC)n1c(Cc2cccs2)nc2cc(C(=O)N[C@@H](CC(C)C)C(=O)N3CC(C(=O)O)C3)ccc21` [Example 411, 1-((S)-2-{[1-(1-Ethyl-propyl)-2-thiophen-2-ylmethyl-1H-benzoimidazole-5-carbonyl]-amino}-4-methyl-pentanoyl)-azetidine-3-carboxylic acid]: under “read-out: EC50 (APJ agonism)”, the EC50 is 822 nM.
On the same count and under the same terms, next, `CCC(CC)n1c(Cc2cccs2)nc2cc(C(=O)NC(CC(=O)O)CC3CCCCC3)ccc21` (stereo not drawn) [Example 46, 4-Cyclohexyl-3-{[1-(1-ethyl-propyl)-2-thiophen-2-ylmethyl-1H-benzoimidazole-5-carbonyl]-amino}-butyric acid]: 112 nM; `CCC(CC)n1c(Cc2cccs2)nc2cc(C(=O)N[C@@H](CC(C)C)C(=O)N[C@@H](C)c3ccc(OC)cc3)ccc21` [Example 247, 1-(1-Ethyl-propyl)-2-thiophen-2-ylmethyl-1H-benzoimidazole-5-carboxylic acid {(S)-1-[(S)-1-(4-methoxy-phenyl)-ethylcarbamoyl]-3-methyl-butyl}-amide]: 7220 nM; `CCC(CC)n1c(Cc2cccs2)nc2cc(C(=O)N[C@H](Cc3n[nH]c(C(F)(F)F)n3)CC(C)C)ccc21` [Example 476, 1-(1-Ethyl-propyl)-2-thiophen-2-ylmethyl-1H-benzoimidazole-5-carboxylic acid [(S)-3-methyl-1-(5-trifluoromethyl-1H-[1,2,4]triazol-3-ylmethyl)-butyl]-amide]: 3950 nM.
The same measure, in the same setting: the same measure for `CCC(CC)n1c(Cc2cccs2)nc2cc(C(=O)NC(CO)c3ccccc3)ccc21` (stereo not drawn) [Example 202, 1-(1-Ethyl-propyl)-2-thiophen-2-ylmethyl-1H-benzoimidazole-5-carboxylic acid (2-hydroxy-1-phenyl-ethyl)-amide]: 14400 nM.
As for `CCC(CC)n1c(Cc2cccs2)nc2cc(C(=O)NC(CC(=O)O)CC(C)(C)C)ccc21` (stereo not drawn) [Example 47, 3-{[1-(1-Ethyl-propyl)-2-thiophen-2-ylmethyl-1H-benzoimidazole-5-carbonyl]-amino}-5,5-dimethyl-hexanoic acid], for the setting “read-out: EC50 (APJ agonism)”, the concentration for a half-maximal effect (EC50) is 2580 nM.
As to `CCC(CC)n1c(Cc2ccco2)nc2cc(C(=O)NC(C)(CC(C)C)C(=O)O)ccc21` (stereo not drawn) [Example 13, 2-{[1-(1-Ethyl-propyl)-2-furan-2-ylmethyl-1H-benzoimidazole-5-carbonyl]-amino}-2,4-dimethyl-pentanoic acid], the EC50 (read-out: EC50 (APJ agonism)) amounted to 535 nM.
On the same count and under the same terms, next, `CCC(CC)n1c(Cc2cccs2)nc2cc(C(=O)N[C@@H](CC(C)C)C(=O)N[C@@H](C)c3ccccc3F)ccc21` [Example 262, 1-(1-Ethyl-propyl)-2-thiophen-2-ylmethyl-1H-benzoimidazole-5-carboxylic acid {(S)-1-[(S)-1-(2-fluoro-phenyl)-ethylcarbamoyl]-3-methyl-butyl}-amide]: 4550 nM.
The same measure, in the same setting: next, `CCCC[C@H](NC(=O)c1ccc2c(c1)nc(Cc1cccs1)n2C(CC)CC)C(=O)O` [Example 18, (S)-2-{[1-(1-Ethyl-propyl)-2-thiophen-2-ylmethyl-1H-benzoimidazole-5-carbonyl]-amino}-hexanoic acid]: 150 nM.
